From US9790173B2, “Alpha-7 nicotinic acetylcholine receptor modulators and uses thereof-I” (MERCK SHARP & DOHME CORP., priority 2012, dated 2017)

Columns and labels:
[1] = molecular target: T1, rat α7 nAChRs (Rattus norvegicus, UniProt Q05941); assay: Automated planar patch clamp (Patchliner) electrophysiology, α7 nAChR PAM activity; type: cell-based; parameters: key to Type I or Type II: I: Type 1 predominately affects the peak current; Type II modulators affect the peak current and also delay the desensitization of the receptor; details: for Type I or Type II: modulator type based on the electrophysiology trace; for activation at 3 µM: GH4-C1, 3 μM compound in the presence of acetylcholine, GH4C1 cells expressing rat α7 nAChRs, peak current, read-out: Peak potentiation at 3 μM compound
T1 construct: expressed in transfected cells; host or cells: GH4C1 cells (rat pituitary line) stably expressing α7 nAChR
T1 sequence (Q05941 23-502): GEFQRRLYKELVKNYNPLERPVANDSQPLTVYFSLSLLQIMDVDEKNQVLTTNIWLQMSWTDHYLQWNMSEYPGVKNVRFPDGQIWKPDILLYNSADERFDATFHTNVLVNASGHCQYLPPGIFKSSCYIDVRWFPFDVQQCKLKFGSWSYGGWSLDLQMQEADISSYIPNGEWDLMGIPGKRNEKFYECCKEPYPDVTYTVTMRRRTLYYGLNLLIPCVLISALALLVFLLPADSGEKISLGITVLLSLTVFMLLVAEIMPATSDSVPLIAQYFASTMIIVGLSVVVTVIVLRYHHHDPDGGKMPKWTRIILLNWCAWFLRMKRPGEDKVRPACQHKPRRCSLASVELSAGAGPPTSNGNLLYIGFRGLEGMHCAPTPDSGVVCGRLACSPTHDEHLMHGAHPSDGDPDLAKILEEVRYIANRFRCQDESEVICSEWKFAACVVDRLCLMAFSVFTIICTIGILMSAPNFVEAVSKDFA
Procedure: Tested compounds were prepared by serial dilutions of 10 mM stock solution in DMSO to concentrations of the compound 1000 times higher than its final concentration. The DMSO stock solutions were then diluted 1:100 in the recording buffer bringing DMSO concentration to 1%. These intermediate solutions were further diluted 10 times with buffer to obtain final concentrations and lower DMSO concentration to 0.1%. […]
Compounds of the invention may be evaluated by electrophysiology using a Patchliner® (Nanion Technologies GmbH, Germany), an automated planar patch-clamp platform of medium throughput was used as a first step in electrophysiological assessment of α7 nAChR positive allosteric modulators (PAMs).
Briefly, intracellular (KCl—50 mM, NaCl—10 mM, KF—60 mM, EGTA—20 mM, HEPES—10 mM, pH—7.2, 285 mOsmol) and extracellular (NaCl—140 mM, KCl—4 mM, CaCl2—2 mM, MgCl2—1 mM, HEPES—10 mM, D-Glucose—5 mM, pH—7.4, 298 mOsmol) solutions were automatically pipetted onto NPC-16 chip (medium resistance ˜2.5-2.6 MΩ). Suspension of GH4C1 cells expressing rat α7 nAChRs was introduced in 4 wells of a medium resistance chip and suction was applied to attract cells in the holes. The extracellular solution was subsequently exchanged to high calcium solution (NaCl—80 mM, KCl—3 mM, CaCl2—45 mM, HEPES—10 mM, pH—7.4, 298 mOsmol) followed by gigaohm seal formation and obtaining whole-cell configuration. The rest of protocol was carried out in the high-calcium recording solution. Holding potential was −70 mV throughout the protocol. A control response to 60 or 100 μM of ACh was obtained first. Next, a cell was pre-incubated with compound of interest at 3 μM for ˜30 s after which the compound was co-applied with acetylcholine.
Amplitude of the responses was measured in HEKA Patchmaster software (HEKA Elektronik, Germany) and percentage of potentiation calculated. Recording was repeated […] a minimum of two replicates had been obtained per compound.
Compounds shown in Table 1 were evaluated by automated planar patch clamp on the Patchliner® as described in Example P2.1. […] The compounds are designated either as Type I or Type II modulators based on the electrophysiology trace. Type 1 predominately affects the peak current. Type II modulators affect the peak current and also delay the desensitization of the receptor.

melting point [°C]	Compound	Type I or Type II [1]	activation at 3 µM [1] [%]
56 to 58	COc1ccc(NC[C@@H]2[C@@H](c3ccc(S(N)(=O)=O)cc3)C23CCCC3)c(OC)n1 [Example 9, ±trans 4-(2-{[(2,6-dimethoxypyridin-3-yl)amino]methyl}spiro[2.4]hept-1-yl)benzenesulfonamide]	II	
60 to 62	Cc1ccc(Cl)cc1NC[C@@H]1[C@@H](c2ccc(S(N)(=O)=O)cc2)C1(C)C [Example 22, ±trans 4-[3-{[(5-chloro-2-methylphenyl)amino]methyl}-2,2-dimethylcyclopropyl]benzenesulfonamide]	II	
164 to 166	COc1ccc(F)cc1NC[C@@H]1[C@@H](c2ccc(S(N)(=O)=O)cc2)C1(C)C [Example 23, ±trans 4-[3-{[(5-fluoro-2-methoxyphenyl)amino]methyl}-2,2-dimethylcyclopropyl]benzenesulfonamide]	II	
120 to 122	CC1(C)[C@H](CNc2cccc(Cl)c2)[C@H]1c1ccc(S(N)(=O)=O)cc1 [Example 24, ±trans 4-[3-{[(3-chlorophenyl)amino]methyl}-2,2-dimethylcyclopropyl]benzenesulfonamide]	II	901
	CC1(C)[C@H](CNc2cccc(N3CCOCC3)c2)[C@H]1c1ccc(S(N)(=O)=O)cc1 [Example 26, ±trans 4-[2,2-dimethyl-3-({[3-(morpholin-4-yl)phenyl]amino}methyl)cyclopropyl]benzenesulfonamide]	II	455
122 to 124	CCOc1ccc(Cl)cc1NC[C@@H]1[C@@H](c2ccc(S(N)(=O)=O)cc2)C1(C)C [Example 27, ±trans 4-[3-{[(5-chloro-2-ethoxyphenyl)amino]methyl}-2,2-dimethylcyclopropyl]benzenesulfonamide]	I	
68 to 70	COc1ccc(C(F)(F)F)cc1NC[C@@H]1[C@@H](c2ccc(S(N)(=O)=O)cc2)C1(C)C [Example 28, ±trans 4-[3-({[2-methoxy-5-(trifluoromethyl)phenyl]amino}methyl)-2,2-dimethylcyclopropyl]benzenesulfonamide]	II	
	Cc1ccc(F)cc1NC[C@@H]1[C@@H](c2ccc(S(N)(=O)=O)cc2)C1(C)C [Example 29, 4-[(1R,3R)-3-{[(5-fluoro-2-methylphenyl)amino]methyl}-2,2-dimethylcyclopropyl]benzenesulfonamide]	I	456
	Cc1ccc(F)cc1NC[C@H]1[C@H](c2ccc(S(N)(=O)=O)cc2)C1(C)C [Example 31, 4-[(1S,3S)-3-{[(5-fluoro-2-methylphenyl)amino]methyl}-2,2-dimethylcyclopropyl]benzenesulfonamide]	II	
	Cc1cc(F)c(F)cc1NC[C@H]1[C@H](c2ccc(S(N)(=O)=O)cc2)C1(C)C [Example 32, 4-[(1S,3S)-3-{[(4,5-difluoro-2-methylphenyl)amino]methyl}-2,2-dimethylcyclopropyl]benzenesulfonamide]	II	
174 to 176	Cc1ncccc1NC[C@@H]1[C@@H](c2ccc(S(N)(=O)=O)cc2)C1(C)C [Example 36, ±trans 4-[2,2-dimethyl-3-{[(2-methylpyridin-3-yl)amino]methyl}cyclopropyl]benzenesulfonamide]	II	125
164 to 166	Cc1cc(F)c(Cl)cc1NC[C@@H]1[C@@H](c2ccc(S(N)(=O)=O)cc2)C1(C)C [Example 37, ±trans 4-[3-{[(3-chloro-4-fluoro-2-methylphenyl)amino]methyl}-2,2-dimethylcyclopropyl]benzenesulfonamide]	II	
	CCc1ccc(F)cc1NC[C@H]1[C@H](c2ccc(S(N)(=O)=O)cc2)C1(C)C [Example 39, ±trans 4-[3-{[(2-ethyl-5-fluorophenyl)amino]methyl}-2,2-dimethylcyclopropyl]benzenesulfonamide]	II	
	CC1(C)[C@@H](CNc2cc(OC(F)(F)F)ccc2F)[C@@H]1c1ccc(S(N)(=O)=O)cc1 [Example 40, ±trans 4-[3-({[2-fluoro-5-(trifluoromethoxy)phenyl]amino}methyl)-2,2-dimethylcyclopropyl]benzenesulfonamide]	II	309
	CC1(C)[C@@H](CNc2cc(F)ccc2OC(F)(F)F)[C@@H]1c1ccc(S(N)(=O)=O)cc1 [Example 41, ±trans 4-[3-({[5-fluoro-2-(trifluoromethoxy)phenyl]amino}methyl)-2,2-dimethylcyclopropyl]benzenesulfonamide]	I	
98 to 100	COc1ncccc1NC[C@@H]1[C@@H](c2ccc(S(N)(=O)=O)cc2)C1(C)C [Example 42, ±trans 4-(3-{[(2-methoxypyridin-3-yl)amino]methyl}-2,2-dimethylcyclopropyl)benzenesulfonamide]	II	
	COc1ccc(Cl)cc1NC[C@@H]1[C@@H](c2ccc(-c3ccccc3O)cc2)C1(C)C [Example 43, ±trans 4′-[3-{[(5-chloro-2-methoxyphenyl)amino]methyl}-2,2-dimethylcyclopropyl]biphenyl-2-ol]	I	100
	CCOc1ccccc1NC[C@@H]1[C@@H](c2ccc(S(N)(=O)=O)cc2)C1(C)C [Example 44, ±trans 4-[3-{[(2-ethoxyphenyl)amino]methyl}-2,2-dimethylcyclopropyl]benzenesulfonamide]	I	
124 to 126	CC1(C)[C@H](CNc2cc(Cl)ccc2C(F)(F)F)[C@H]1c1ccc(S(N)(=O)=O)cc1 [Example 45, ±trans 4-[3-({[5-chloro-2-(trifluoromethyl)phenyl]amino}methyl)-2,2-dimethylcyclopropyl]benzenesulfonamide]	I	
82 to 84	Cc1cccnc1NC[C@@H]1[C@@H](c2ccc(S(N)(=O)=O)cc2)C12CCCC2 [Example 49, ±trans 4-[2-{[(3-methylpyridin-2-yl)amino]methyl}spiro[2.4]hept-1-yl]benzenesulfonamide]	II	
115 to 118	NS(=O)(=O)c1ccc([C@H]2C[C@@H]2CNc2cc(F)ccc2OC(F)(F)F)cc1 [Example 52, 4-[(1S,2S)-2-({[5-fluoro-2-(trifluoromethoxy)phenyl]amino}methyl)cyclopropyl]benzenesulfonamide]	II	
126 to 128	COc1ccc(Cl)cc1NC[C@H]1C[C@@H]1Cc1ccc(S(N)(=O)=O)cc1 [Example 54, ±trans 4-{[-2-{[(5-chloro-2-methoxyphenyl)amino]methyl}cyclopropyl]methyl}benzenesulfonamide]	I	574
	COc1ccc(Cl)cc1NC[C@@H]1[C@@H](c2ccc(S(=O)(=O)NO)cc2)C1(C)C [Example 55, ±trans 4-[3-{[(5-chloro-2-methoxyphenyl)amino]methyl}-2,2-dimethylcyclopropyl]-N-hydroxybenzenesulfonamide]	I	724
	COc1ccc(Cl)cc1NC[C@@H]1[C@@H](c2ccc(S(=O)(=O)NN)cc2)C1(C)C [Example 56, ±trans 4-[3-{[(5-chloro-2-methoxyphenyl)amino]methyl}-2,2-dimethylcyclopropyl]benzenesulfonohydrazide]	I	131
